Converted amounts (≈) assume the structure as drawn.
Assays:
HeLa = assay: Antiproliferative activity against human HeLa cells assessed as cell viability after 96 hrs by CellTiter96 assay; assay type: functional, cell-based
K562 = assay: Antiproliferative activity against human K562 cells assessed as cell viability after 96 hrs by CellTiter96 assay; assay type: functional, cell-based; conditions: K562, 96 h
MDA-MB-468 = assay: Antiproliferative activity against human MDA-MB-468 cells assessed as cell viability after 96 hrs by CellTiter96 assay; assay type: functional, cell-based; conditions: MDA-MB-468, 96 h
MDA-MB-231 = assay: Antiproliferative activity against human MDA-MB-231 cells assessed as cell viability after 96 hrs by CellTiter96 assay; assay type: functional, cell-based; conditions: MDA-MB-231, 96 h
[1] = Solubility of the compound in phosphate buffered saline containing 1% DMSO at pH 7.4 after 2 hrs by HPLC analysis; assay type: physicochemical

| Compound | IC50 (HeLa) [nM] | IC50 (K562) [nM] | IC50 (MDA-MB-468) [nM] | IC50 (MDA-MB-231) [nM] | solubility kinetic at 2 h [1] [µM] |
| --- | --- | --- | --- | --- | --- |
| Cc1cc(C)c(-c2csc(NC(=O)c3ccccc3)n2)c(C)c1 | 3600 | 3200 | 2200 | 3200 | – |
| Cc1cc(C)c(-c2csc(NC(=O)c3ccncc3)n2)c(C)c1 | – | – | – | – | 3.33 (≈ 1.08 µg/mL) |
| Cc1cc(Oc2ccc3c(c2)OCO3)cc(C)c1-c1csc(NC(=O)c2ccncc2)n1 | 106 | 45.7 | 128 | 68 | – |
| Cc1cc(C)c(-c2csc(NC(=O)Cc3ccncc3)n2)c(C)c1 | 620 | 380 | 300 | 310 | – |
| COc1ccc(Oc2cc(C)c(-c3csc(NC(=O)c4ccncc4)n3)c(C)c2)cc1 | 48.6 | 34.9 | 37 | 32 | – |

From ChEMBL document CHEMBL3259640 (J Med Chem, 2014)
